Laboratory results published in patent US11142533B2, “Macrocycles for use in treating disease” (TURNING POINT THERAPEUTICS, INC., priority 2019, dated 2021).
Converted amounts (≈) assume the structure as drawn.

What was measured:
[1] = Liver microsomal stability; type: in vitro ADME; settings: pH 7.4, 1 μM compound, 0.5 mg/mL liver microsome protein
Procedure: The test compound stock solution was prepared by weighing 1.07 mg and dissolving in 0.261 mL of DMSO to achieve the concentration of 10 mM. Working solution of the test compound was prepared by diluting stock solution using DMSO to yield the concentration of 300 μM.
The assay was carried out in 96-well microtiter plates. In each well, the reaction mixture (25 μL) contained the test compound at the final concentration of 1 μM, 0.5 mg/mL liver microsome protein, and 1 mM NADPH in 100 mM potassium phosphate, pH 7.4 buffer with 3.3 mM MgCl2. The mixtures were incubated in duplicate at 37° C. for 0, 15, 30 or 60 minutes, and 150 μL of quench solution (acetonitrile with 0.1% formic acid) with internal standard (bucetin for positive ESI mode) was added into each well of reaction to terminate the reaction. The plates were then sealed and centrifuged at 4° C. for 15 minutes at 4000 rpm. The resulting supernatant was transferred to fresh plates for LC-MS/MS analysis of the test compounds. Verapamil was used as the positive control to validate the assay system.
All samples were analyzed with LC-MS/MS using an AB Sciex API 4000 instrument, coupled to a Shimadzu LC-20AD LC Pump system. Analytical samples were separated using a Waters Atlantis T3 dC18 reverse phase HPLC column (20 mm×2.1 mm) at a flow rate of 0.5 mL/min. The mobile phase consisted of 0.1% formic acid in water (solvent A) and 0.1% formic acid in acetonitrile (solvent B).
The extent of metabolism was calculated based on the disappearance of the test compound, compared to its initial concentration. The initial rates of clearance of test compounds were calculated using linear regression plot of semi-log % remaining of compounds versus time. The elimination rate constant (equals to negative slope) of the linear regression plot was then used to determine t112 and the intrinsic clearance (CLInt) using the following formula: k=−slope t1/2=0.693/k CLint=k/Cprotein
Where Cprotein (mg/mL) is the microsomal protein concentration in the incubation system.

KG-1 cell (OP2-FGFR1) = KG-1 cell (OP2-FGFR1) (Homo sapiens, UniProt P11362); test: Cell proliferation assay (CellTiter-Glo)
Sequence of KG-1 cell (OP2-FGFR1) (P11362 456-822 limits assumed): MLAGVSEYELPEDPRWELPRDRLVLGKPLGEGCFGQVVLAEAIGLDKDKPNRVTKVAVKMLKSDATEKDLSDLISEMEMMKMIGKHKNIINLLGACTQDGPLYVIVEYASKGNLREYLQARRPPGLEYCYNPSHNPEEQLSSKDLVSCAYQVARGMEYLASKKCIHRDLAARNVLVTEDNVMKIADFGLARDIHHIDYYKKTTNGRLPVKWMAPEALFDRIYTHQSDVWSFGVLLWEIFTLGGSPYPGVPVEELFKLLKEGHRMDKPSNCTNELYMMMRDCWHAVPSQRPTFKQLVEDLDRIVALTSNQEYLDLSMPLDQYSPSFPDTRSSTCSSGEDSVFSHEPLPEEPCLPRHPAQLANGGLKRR

KM12 (TPM3-TRKA) = KM12 (TPM3-TRKA) (Homo sapiens, UniProt P04629); test: Cell proliferation assay (CellTiter-Glo)
Sequence of KM12 (TPM3-TRKA) (P04629 with tags, fused parts or gaps): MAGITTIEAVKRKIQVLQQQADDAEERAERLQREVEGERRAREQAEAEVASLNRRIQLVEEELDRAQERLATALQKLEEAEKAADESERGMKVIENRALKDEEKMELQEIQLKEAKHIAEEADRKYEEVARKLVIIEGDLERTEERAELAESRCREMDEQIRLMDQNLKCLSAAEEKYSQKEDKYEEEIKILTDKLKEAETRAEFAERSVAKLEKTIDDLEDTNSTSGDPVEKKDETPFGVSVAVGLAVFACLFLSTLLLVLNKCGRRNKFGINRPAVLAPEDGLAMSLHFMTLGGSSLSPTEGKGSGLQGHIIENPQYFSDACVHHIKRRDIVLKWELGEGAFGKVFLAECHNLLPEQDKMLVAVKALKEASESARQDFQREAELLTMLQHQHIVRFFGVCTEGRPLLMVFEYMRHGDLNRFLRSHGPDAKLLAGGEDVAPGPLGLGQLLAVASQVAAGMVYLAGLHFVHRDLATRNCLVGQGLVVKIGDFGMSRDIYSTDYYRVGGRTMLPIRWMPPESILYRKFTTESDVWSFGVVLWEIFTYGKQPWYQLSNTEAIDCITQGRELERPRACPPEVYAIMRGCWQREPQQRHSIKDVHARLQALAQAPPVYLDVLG

[2] = Solubility test in phosphate buffer; type: physicochemical; settings: aqueous buffer, thermodynamic from solid; phosphate buffer pH 7.4, room temperature
Procedure: Aliquot of 1.035 mL phosphate buffer (PB) (pH 7.4) was added into 2.07 mg of the test compound (for a 2 mg·mL^−1 upper limiting solubility determination) in a 1.5 mL tubes. The mixture was ultrasonicly treated for 10 min and rotated on rotator at room temperature for more than 8 hr. After rotation, the tube was ultrasonicly treated for 10 min and centrifuged at 13000 rpm for 15 min. 0.3 mL of the supernatant was transferred into a 0.6 mL tube and discarded after rotated for 5 min for rinsing, then about 0.6 mL of the residual supernatant was transferred into the rinsed tube and centrifuged again at 13000 rpm for 15 min. The supernatant after every centrifugation was appropriately diluted and transferred for LC-MS/MS analysis where a standard curve was constructed with 7 concentration levels (2, 4, 10, 20, 40, 100 and 200 μg mL^−1) and used for the quantitation of the analyte in PB.

[3] = Mouse pharmacokinetic study; type: in vivo; settings: single oral dose (dose level not given), plasma
Procedure: To prepare 1 L of the vehicle solution (0.5% CMC and 1.0% Tween 80), 10 g of Tween 80 was mixed with 985 mL of water into a 1 L bottle. The mixture was stirred until Tween 80 was completely dissolved. With continued stirring, 5 g of CMC was very slowly sprinkled into the solution. Stirring was continued until all CMC was dissolved, which might take several hr. The resulting vehicle solution was stored at 4° C.
The compound was suspended in the vehicle solution and the mice were orally administrated with a single dose of the compound at the selected dose level. The blood samples were collected according to the defined time table into tubes containing K2-EDTA, followed by gentle mixing to assure distribution of the anti-coagulant. Immediately after the blood sample was collected and mixed, it was placed on ice. The samples were then centrifuged at 4° C. for 10 minutes at 5,000 RPM. The plasma was harvested into pre-labeled tubes and stored at −80° C. until analyzed by LC-MS/MS.

[4] = female, mouse, liver microsomes

microsomal CLint at 1 µM [1, 4] | microsomal CLint at 1 µM ([1]; female, rat, liver microsomes) | microsomal CLint at 1 µM ([1]; human, pooled liver microsomes) | IC50 (KG-1 cell (OP2-FGFR1)) | IC50 (KM12 (TPM3-TRKA)) | solubility [2] | AUC [3] | Cmax [3] | Tmax [3] | SMILES
22 µL/min/mg | 10 µL/min/mg | 2.6 µL/min/mg | 22.2 nM | < 0.2 nM | 7.9 µg/mL (≈ 19.8 µM) | 12300 ng·h/mL | 4190 ng/mL | 30 min | C[C@@H]1COc2ncc(F)cc2CN2c3nc4c(cnn4cc3OC[C@H]2C)C(=O)N1 [Comp. Ex. 1, reference compound]
21 µL/min/mg | 5.9 µL/min/mg | 3.9 µL/min/mg | 0.65 nM | 0.2 nM | 4.9 µg/mL (≈ 11.9 µM) | 18700 ng·h/mL | 2900 ng/mL | 30 min | C[C@@H]1COc2cn3ncc4c3nc2N1Cc1cc(F)cnc1OCC(C)(C)NC4=O [Comp. Ex. 2, reference compound]
 |  |  | 75.3 nM | < 0.2 nM |  |  |  |  | O=C1NCCCOc2ccc(F)cc2CN2c3nc4c1cnn4cc3OC[C@H]2C(F)F [Compound 3, (16S)-16-(Difluoromethyl)-12-fluoro-5,6,7,8,16,17-hexahydro-4H,14H-1,19-(metheno)[1,4]oxazino[3,4-j]pyrazolo[4,3-g][1,5,9,11]benzoxatriazacyclotetradecin-4-one]
 |  |  | 60.9 nM |  |  |  |  |  | O=C1NC2(CC2)COc2ccc(F)cc2CN2c3nc4c1cnn4cc3OC[C@H]2C(F)F [Compound 4, (4′S)-4′-(Difluoromethyl)-8′-fluoro-3′H,4′H,6′H,12′H,14′H,15′H-spiro[cyclopropane-1,13′-[18,1](metheno)[1,4]oxazino[3,4-i]pyrazolo[4,3-f][1,4,8,10]benzoxatriazacyclotridecin]-15′-one]
 |  |  | 514 nM | < 0.2 nM |  |  |  |  | C[C@@H]1CCOc2ccc(F)cc2CN2c3nc4c(cnn4cc3OC[C@H]2C(F)F)C(=O)N1 [Compound 5, (6R,16S)-16-(Difluoromethyl)-12-fluoro-6-methyl-5,6,7,8,16,17-hexahydro-4H,14H-1,19-(metheno)[1,4]oxazino[3,4-j]pyrazolo[4,3-g][1,5,9,11]benzoxatriazacyclotetradecin-4-one]
 |  |  | 385 nM | < 0.2 nM |  |  |  |  | O=C1NC2(CCOc3ccc(F)cc3CN3c4nc5c1cnn5cc4OC[C@H]3C(F)F)CC2 [Compound 6, (16′S)-16′-(Difluoromethyl)-12′-fluoro-4′H,5′H,7′H,8′H,14′H,16′H,17′H-spiro[cyclopropane-1,6′-[1,19](metheno)[1,4]oxazino[3,4-j]pyrazolo[4,3-g][1,5,9,11]benzoxatriazacyclotetradecin]-4′-one]
 |  |  | 40.7 nM | < 0.2 nM |  |  |  |  | CC1(C)CNC(=O)c2cnn3cc4c(nc23)N(Cc2cc(F)ccc2OC1)[C@H](C(F)F)CO4 [Compound 7, (16S)-16-(Difluoromethyl)-12-fluoro-7,7-dimethyl-5,6,7,8,16,17-hexahydro-4H,14H-1,19-(metheno)[1,4]oxazino[3,4-j]pyrazolo[4,3-g][1,5,9,11]benzoxatriazacyclotetradecin-4-one]
 |  |  | 2100 nM | < 0.2 nM |  |  |  |  | CC1(C)CCOc2ccc(F)cc2CN2c3nc4c(cnn4cc3OC[C@H]2C(F)F)C(=O)N1 [Compound 8, (16S)-16-(Difluoromethyl)-12-fluoro-6,6-dimethyl-5,6,7,8,16,17-hexahydro-4H,14H-1,19-(metheno)[1,4]oxazino[3,4-j]pyrazolo[4,3-g][1,5,9,11]benzoxatriazacyclotetradecin-4-one]
